Data as given in ChEMBL document CHEMBL3227999, “Synthesis and biological properties of N2-substituted spin-labeled analogues of actinomycin D” (J Med Chem, 1979).
Calls of active or inactive are those of the source. The rule behind the calls is not given here.

What was measured:
[1] = target: T1, Bacterial DNA-directed RNA polymerase (Bacteria) (UniProt P0A8V2+P0A7Z4+P0A8T7+P0A800); experiment: Inhibition of Escherichia coli DNA-dependent RNA polymerase at 10 ug/ml using calf thymus DNA as primer; type: protein-complex assay
T1 sequence (P0A7Z4 whole entry partner): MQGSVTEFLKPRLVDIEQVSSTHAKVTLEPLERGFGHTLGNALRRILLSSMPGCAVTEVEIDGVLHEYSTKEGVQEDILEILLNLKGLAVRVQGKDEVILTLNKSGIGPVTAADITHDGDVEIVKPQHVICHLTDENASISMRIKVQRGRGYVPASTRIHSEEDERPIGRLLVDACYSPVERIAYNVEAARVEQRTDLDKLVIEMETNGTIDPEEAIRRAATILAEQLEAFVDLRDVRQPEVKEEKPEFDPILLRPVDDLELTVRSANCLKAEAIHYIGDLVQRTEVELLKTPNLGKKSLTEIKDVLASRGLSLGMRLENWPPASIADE
T1 sequence (P0A800 2-91 partner limits assumed): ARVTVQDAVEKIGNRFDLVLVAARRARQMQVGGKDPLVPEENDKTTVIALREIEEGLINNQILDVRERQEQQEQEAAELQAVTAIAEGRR
T1 sequence (P0A8T7 whole entry partner): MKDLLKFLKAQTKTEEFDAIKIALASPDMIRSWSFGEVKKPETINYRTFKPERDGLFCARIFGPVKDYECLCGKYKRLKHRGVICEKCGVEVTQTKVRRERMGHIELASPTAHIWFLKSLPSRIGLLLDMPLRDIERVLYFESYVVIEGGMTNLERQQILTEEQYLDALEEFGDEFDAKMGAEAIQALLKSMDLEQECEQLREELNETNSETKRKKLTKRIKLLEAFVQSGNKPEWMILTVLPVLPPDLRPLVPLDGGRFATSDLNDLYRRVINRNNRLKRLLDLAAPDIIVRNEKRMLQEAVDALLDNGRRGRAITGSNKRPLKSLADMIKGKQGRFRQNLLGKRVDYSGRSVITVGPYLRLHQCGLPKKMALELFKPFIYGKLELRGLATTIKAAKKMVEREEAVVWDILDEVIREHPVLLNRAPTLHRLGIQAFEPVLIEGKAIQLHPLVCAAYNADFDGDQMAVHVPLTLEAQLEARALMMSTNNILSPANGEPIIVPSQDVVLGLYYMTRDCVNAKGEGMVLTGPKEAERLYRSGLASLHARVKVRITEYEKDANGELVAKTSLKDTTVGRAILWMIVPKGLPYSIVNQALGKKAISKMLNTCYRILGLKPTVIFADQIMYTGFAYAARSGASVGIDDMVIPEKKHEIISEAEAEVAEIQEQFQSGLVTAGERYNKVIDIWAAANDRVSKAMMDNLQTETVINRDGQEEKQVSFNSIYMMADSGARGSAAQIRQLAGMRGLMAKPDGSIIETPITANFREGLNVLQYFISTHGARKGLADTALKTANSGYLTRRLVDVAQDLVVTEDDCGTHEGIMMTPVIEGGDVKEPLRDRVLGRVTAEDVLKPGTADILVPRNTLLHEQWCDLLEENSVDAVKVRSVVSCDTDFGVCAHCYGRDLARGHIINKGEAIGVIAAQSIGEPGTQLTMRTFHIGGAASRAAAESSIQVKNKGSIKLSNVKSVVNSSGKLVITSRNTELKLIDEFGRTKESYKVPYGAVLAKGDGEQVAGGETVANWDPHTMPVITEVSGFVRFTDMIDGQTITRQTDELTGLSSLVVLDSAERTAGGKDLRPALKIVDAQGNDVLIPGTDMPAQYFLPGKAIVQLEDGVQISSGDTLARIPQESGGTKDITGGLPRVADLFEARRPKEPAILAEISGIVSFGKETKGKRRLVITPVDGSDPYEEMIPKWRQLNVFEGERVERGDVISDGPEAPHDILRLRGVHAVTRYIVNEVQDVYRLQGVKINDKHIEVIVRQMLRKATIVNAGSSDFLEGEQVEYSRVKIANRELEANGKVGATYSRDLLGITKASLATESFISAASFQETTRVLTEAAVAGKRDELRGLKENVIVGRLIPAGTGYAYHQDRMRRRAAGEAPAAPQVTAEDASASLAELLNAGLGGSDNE
T1 sequence (P0A8V2 whole entry): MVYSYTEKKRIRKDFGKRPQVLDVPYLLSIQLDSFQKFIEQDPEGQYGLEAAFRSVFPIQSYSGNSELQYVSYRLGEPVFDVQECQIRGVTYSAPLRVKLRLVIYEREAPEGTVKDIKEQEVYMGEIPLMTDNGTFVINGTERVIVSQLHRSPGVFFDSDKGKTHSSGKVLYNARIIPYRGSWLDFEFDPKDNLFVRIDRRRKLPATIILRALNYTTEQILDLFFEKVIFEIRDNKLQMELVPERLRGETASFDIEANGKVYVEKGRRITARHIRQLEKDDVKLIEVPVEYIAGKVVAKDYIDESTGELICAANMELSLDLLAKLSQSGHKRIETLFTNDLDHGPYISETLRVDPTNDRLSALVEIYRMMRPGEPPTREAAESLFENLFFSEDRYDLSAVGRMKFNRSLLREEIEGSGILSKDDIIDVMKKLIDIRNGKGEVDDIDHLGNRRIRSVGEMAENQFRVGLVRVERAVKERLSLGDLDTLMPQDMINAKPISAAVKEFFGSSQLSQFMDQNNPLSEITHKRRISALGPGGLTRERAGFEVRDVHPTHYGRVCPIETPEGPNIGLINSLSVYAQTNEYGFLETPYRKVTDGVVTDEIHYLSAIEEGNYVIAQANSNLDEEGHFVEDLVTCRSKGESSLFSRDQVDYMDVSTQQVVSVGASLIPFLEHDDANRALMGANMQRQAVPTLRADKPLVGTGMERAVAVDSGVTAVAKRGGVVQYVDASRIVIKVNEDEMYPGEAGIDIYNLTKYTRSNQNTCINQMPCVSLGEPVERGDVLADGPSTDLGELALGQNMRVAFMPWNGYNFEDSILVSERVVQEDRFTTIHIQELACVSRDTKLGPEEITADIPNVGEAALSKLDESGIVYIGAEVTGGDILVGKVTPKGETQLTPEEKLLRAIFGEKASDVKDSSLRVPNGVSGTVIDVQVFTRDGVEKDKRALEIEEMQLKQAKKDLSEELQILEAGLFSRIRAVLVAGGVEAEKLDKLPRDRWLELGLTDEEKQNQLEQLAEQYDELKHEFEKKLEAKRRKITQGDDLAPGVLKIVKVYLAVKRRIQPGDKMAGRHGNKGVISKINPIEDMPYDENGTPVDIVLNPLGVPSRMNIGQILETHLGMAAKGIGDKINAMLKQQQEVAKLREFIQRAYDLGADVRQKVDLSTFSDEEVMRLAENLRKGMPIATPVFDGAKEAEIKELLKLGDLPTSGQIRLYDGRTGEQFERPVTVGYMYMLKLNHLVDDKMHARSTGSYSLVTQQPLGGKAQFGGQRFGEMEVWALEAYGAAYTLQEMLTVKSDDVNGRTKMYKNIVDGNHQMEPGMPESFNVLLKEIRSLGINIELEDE

[2] = tested on: P388; experiment: Antitumor activity against mouse P388 cells allografted in CDF1 mouse assessed as survival at 0.8 mg/kg, ip administered on day 1, 5 and 9; type: functional; details: route intraperitoneal
[3] = tested on: L1210; experiment: Cytotoxicity against mouse L1210 cells at 10 ug/ml after 48 hrs; type: functional; details: L1210, 48 h
[4] = tested on: P388; experiment: Antitumor activity against mouse P388 cells allografted in CDF1 mouse assessed as survival at 1.8 mg/kg, ip administered on day 1, 5 and 9; type: functional; details: route intraperitoneal
[5] = target: T1, Bacterial DNA-directed RNA polymerase (Bacteria); experiment: Inhibition of Escherichia coli DNA-dependent RNA polymerase at 2.5 ug/ml using Micrococcus luteus DNA as primer; type: protein-complex assay
[6] = target: T1, Bacterial DNA-directed RNA polymerase (Bacteria); experiment: Inhibition of Escherichia coli DNA-dependent RNA polymerase at 10 ug/ml using Micrococcus luteus DNA as primer; type: protein-complex assay
[7] = tested on: P388; experiment: Antitumor activity against mouse P388 cells allografted in CDF1 mouse assessed as survival at 2.7 mg/kg, ip administered on day 1, 5 and 9; type: functional; details: route intraperitoneal
[8] = target: T1, Bacterial DNA-directed RNA polymerase (Bacteria); experiment: Inhibition of Escherichia coli DNA-dependent RNA polymerase at 5 ug/ml using calf thymus DNA as primer; type: protein-complex assay
[9] = tested on: Calf thymus DNA; experiment: Binding affinity to calf thymus DNA at 1 x 10^-5 M after 30 mins by circular dichroism analysis; type: nucleic-acid assay; details: Bos taurus
[10] = target: T1, Bacterial DNA-directed RNA polymerase (Bacteria); experiment: Inhibition of Escherichia coli DNA-dependent RNA polymerase at 20 ug/ml using Micrococcus luteus DNA as primer; type: protein-complex assay
[11] = tested on: L1210; experiment: Cytotoxicity against mouse L1210 cells at 0.01 ug/ml after 48 hrs; type: functional; details: L1210, 48 h
[12] = tested on: Calf thymus DNA; experiment: Binding affinity to calf thymus DNA at 1 x 10^-5 M by thermal denaturation assay; type: nucleic-acid assay; details: Bos taurus
[13] = target: T1, Bacterial DNA-directed RNA polymerase (Bacteria); experiment: Inhibition of Escherichia coli DNA-dependent RNA polymerase at 5 ug/ml using Micrococcus luteus DNA as primer; type: protein-complex assay
[14] = tested on: L1210; experiment: Cytotoxicity against mouse L1210 cells at 5 ug/ml after 48 hrs; type: functional; details: L1210, 48 h
[15] = tested on: P388; experiment: Antitumor activity against mouse P388 cells allografted in CDF1 mouse assessed as survival at 1.2 mg/kg, ip administered on day 1, 5 and 9; type: functional; details: route intraperitoneal
[16] = tested on: L1210; experiment: Cytotoxicity against mouse L1210 cells at 0.05 ug/ml after 48 hrs; type: functional; details: L1210, 48 h
[17] = tested on: Calf thymus DNA; experiment: Binding affinity to calf thymus DNA at 1 x 10^-5 M by lectron spin resonance analysis; type: nucleic-acid assay; details: Bos taurus
[18] = tested on: P388; experiment: Antitumor activity against mouse P388 cells allografted in CDF1 mouse assessed as survival at 6 mg/kg, ip administered on day 1, 5 and 9; type: functional; details: route intraperitoneal
[19] = target: T1, Bacterial DNA-directed RNA polymerase (Bacteria); experiment: Inhibition of Escherichia coli DNA-dependent RNA polymerase at 20 ug/ml using calf thymus DNA as primer; type: protein-complex assay
[20] = tested on: L1210; experiment: Cytotoxicity against mouse L1210 cells at 0.1 ug/ml after 48 hrs; type: functional; details: L1210, 48 h
[21] = tested on: L1210; experiment: Cytotoxicity against mouse L1210 cells at 0.5 ug/ml after 48 hrs; type: functional; details: L1210, 48 h
[22] = tested on: L1210; experiment: Cytotoxicity against mouse L1210 cells at 1 ug/ml after 48 hrs; type: functional; details: L1210, 48 h
[23] = target: T1, Bacterial DNA-directed RNA polymerase (Bacteria); experiment: Inhibition of Escherichia coli DNA-dependent RNA polymerase at 2.5 ug/ml using calf thymus DNA as primer; type: protein-complex assay
[24] = tested on: P388; experiment: Antitumor activity against mouse P388 cells allografted in CDF1 mouse assessed as survival at 4 mg/kg, ip administered on day 1, 5 and 9; type: functional; details: route intraperitoneal
[25] = tested on: L1210; experiment: Cytotoxicity against mouse L1210 cells at 0.001 ug/ml after 48 hrs; type: functional; details: L1210, 48 h
[26] = tested on: Mus musculus; experiment: Toxicity in mouse P388 cells allografted CDF1 mouse assessed as weight loss at 6 mg/kg, ip administered on day 1, 5 and 9; type: organism-based; parameters: dose 6 mg/kg, route intraperitoneal; details: in vivo
[27] = target: Bacterial DNA-directed RNA polymerase (Bacteria, UniProt P0A7Z4+P0A800+P0A8T7+P0A8V2); experiment: Inhibition of Escherichia coli DNA-dependent RNA polymerase; type: protein-complex assay
[28] = tested on: Mus musculus; experiment: Toxicity in mouse P388 cells allografted CDF1 mouse assessed as mortality at 6 mg/kg, ip administered on day 1, 5 and 9; type: organism-based; parameters: dose 6 mg/kg, route intraperitoneal; details: in vivo
[29] = tested on: Mus musculus; experiment: Toxicity in mouse P388 cells allografted CDF1 mouse assessed as weight loss at 4 mg/kg, ip administered on day 1, 5 and 9; type: organism-based; parameters: dose 4 mg/kg, route intraperitoneal; details: in vivo

SMILES	inhibition [1] [%]	Survival [2] [days]	inhibition at 10 µg/mL [3] [%]	Survival [4] [days]	T/C [4] [%]	inhibition [5] [%]	inhibition [6] [%]	Survival [7] [days]	T/C [7] [%]	inhibition [8] [%]	Activity [9]	inhibition [10] [%]	inhibition at 0.01 µg/mL [11] [%]	ΔTm [12] [°C]	inhibition [13] [%]	inhibition at 5 µg/mL [14] [%]	Survival [15] [days]	T/C [15] [%]	inhibition at 0.05 µg/mL [16] [%]	Activity [17]	further results
Cc1c2oc3c(C)ccc(C(=O)N[C@@H]4C(=O)N[C@H](C(C)C)C(=O)N5CCC[C@H]5C(=O)N(C)CC(=O)N(C)[C@@H](C(C)C)C(=O)O[C@@H]4C)c3nc-2c(C(=O)N[C@@H]2C(=O)N[C@H](C(C)C)C(=O)N3CCC[C@H]3C(=O)N(C)CC(=O)N(C)[C@@H](C(C)C)C(=O)O[C@@H]2C)c(NCCNC2CC(C)(C)N([O])C(C)(C)C2)c1=O	81	19	99	17	162	42	78	19	181	61	inactive	91	0	2.8	56	98	16	152	15	inactive	T/C [2]: 181%; Survival [18]: 8 days; T/C [18]: 76%; inhibition [19]: 88%; inhibition at 0.1 µg/mL [20]: 41%; inhibition at 0.5 µg/mL [21]: 62%; inhibition at 1 µg/mL [22]: 71%; inhibition [23]: 43%; Survival [24]: 25 days; T/C [24]: 238%; inhibition at 0.001 µg/mL [25]: 0%
Cc1c2oc3c(C)ccc(C(=O)N[C@@H]4C(=O)N[C@H](C(C)C)C(=O)N5CCC[C@H]5C(=O)N(C)CC(=O)N(C)[C@@H](C(C)C)C(=O)O[C@@H]4C)c3nc-2c(C(=O)N[C@@H]2C(=O)N[C@H](C(C)C)C(=O)N3CCC[C@H]3C(=O)N(C)CC(=O)N(C)[C@@H](C(C)C)C(=O)O[C@@H]2C)c(NC2CC(C)(C)[N+]([O-])C(C)(C)C2)c1=O	–	–	–	–	–	–	–	–	–	–	–	–	–	–	–	–	–	–	–	–	Activity [26]: Toxic
Cc1c2oc3c(C)ccc(C(=O)N[C@@H]4C(=O)N[C@H](C(C)C)C(=O)N5CCC[C@H]5C(=O)N(C)CC(=O)N(C)[C@@H](C(C)C)C(=O)O[C@@H]4C)c3nc-2c(C(=O)N[C@@H]2C(=O)N[C@H](C(C)C)C(=O)N3CCC[C@H]3C(=O)N(C)CC(=O)N(C)[C@@H](C(C)C)C(=O)O[C@@H]2C)c(NCCCNC2CC(C)(C)[N+]([O-])C(C)(C)C2)c1=O	–	–	–	–	–	–	–	–	–	–	–	–	–	–	–	–	–	–	–	–	IC50 [27]: 2730 nM; Activity [26]: Toxic
Cc1c2oc3c(C)ccc(C(=O)N[C@@H]4C(=O)N[C@H](C(C)C)C(=O)N5CCC[C@H]5C(=O)N(C)CC(=O)N(C)[C@@H](C(C)C)C(=O)O[C@@H]4C)c3nc-2c(C(=O)N[C@@H]2C(=O)N[C@H](C(C)C)C(=O)N3CCC[C@H]3C(=O)N(C)CC(=O)N(C)[C@@H](C(C)C)C(=O)O[C@@H]2C)c(NCCNC2CC(C)(C)[N+]([O-])C(C)(C)C2)c1=O	–	–	–	–	–	–	–	–	–	–	–	–	–	–	–	–	–	–	–	–	Activity [28]: Toxic; IC50 [27]: 2750 nM; Activity [29]: Toxic
Cc1c2oc3c(C)ccc(C(=O)N[C@@H]4C(=O)N[C@H](C(C)C)C(=O)N5CCC[C@H]5C(=O)N(C)CC(=O)N(C)[C@@H](C(C)C)C(=O)O[C@@H]4C)c3nc-2c(C(=O)N[C@@H]2C(=O)N[C@H](C(C)C)C(=O)N3CCC[C@H]3C(=O)N(C)CC(=O)N(C)[C@@H](C(C)C)C(=O)O[C@@H]2C)c(NCCCNC2CC(C)(C)N([O])C(C)(C)C2)c1=O	49	15	98	19	143	22	32	18	181	78	Active	62	0	3.5	52	69	15	143	0	Active	Survival [18]: 29 days; T/C [18]: 171%; inhibition [19]: 79%; inhibition at 0.1 µg/mL [20]: 16%; inhibition at 0.5 µg/mL [21]: 33%; inhibition at 1 µg/mL [22]: 45%; inhibition [23]: 28%; Survival [24]: 18 days; T/C [24]: 171%; inhibition at 0.001 µg/mL [25]: 0%
Cc1c2oc3c(C)ccc(C(=O)N[C@@H]4C(=O)N[C@H](C(C)C)C(=O)N5CCC[C@H]5C(=O)N(C)CC(=O)N(C)[C@@H](C(C)C)C(=O)O[C@@H]4C)c3nc-2c(C(=O)N[C@@H]2C(=O)N[C@H](C(C)C)C(=O)N3CCC[C@H]3C(=O)N(C)CC(=O)N(C)[C@@H](C(C)C)C(=O)O[C@@H]2C)c(NC2CC(C)(C)N([O])C(C)(C)C2)c1=O	62	17	98	20	190	21	57	19	181	41	inactive	77	0	1.7	33	96	17	162	10	inactive	T/C [2]: 162%; Survival [18]: 29 days; T/C [18]: 276%; inhibition [19]: 78%; inhibition at 0.1 µg/mL [20]: 21%; inhibition at 0.5 µg/mL [21]: 39%; inhibition at 1 µg/mL [22]: 57%; inhibition [23]: 37%; Survival [24]: 26 days; T/C [24]: 248%; inhibition at 0.001 µg/mL [25]: 0%
